In one experiment the target is T1, Acetylcholinesterase (Mus musculus, UniProt P21836).
T1 sequence (P21836 whole entry): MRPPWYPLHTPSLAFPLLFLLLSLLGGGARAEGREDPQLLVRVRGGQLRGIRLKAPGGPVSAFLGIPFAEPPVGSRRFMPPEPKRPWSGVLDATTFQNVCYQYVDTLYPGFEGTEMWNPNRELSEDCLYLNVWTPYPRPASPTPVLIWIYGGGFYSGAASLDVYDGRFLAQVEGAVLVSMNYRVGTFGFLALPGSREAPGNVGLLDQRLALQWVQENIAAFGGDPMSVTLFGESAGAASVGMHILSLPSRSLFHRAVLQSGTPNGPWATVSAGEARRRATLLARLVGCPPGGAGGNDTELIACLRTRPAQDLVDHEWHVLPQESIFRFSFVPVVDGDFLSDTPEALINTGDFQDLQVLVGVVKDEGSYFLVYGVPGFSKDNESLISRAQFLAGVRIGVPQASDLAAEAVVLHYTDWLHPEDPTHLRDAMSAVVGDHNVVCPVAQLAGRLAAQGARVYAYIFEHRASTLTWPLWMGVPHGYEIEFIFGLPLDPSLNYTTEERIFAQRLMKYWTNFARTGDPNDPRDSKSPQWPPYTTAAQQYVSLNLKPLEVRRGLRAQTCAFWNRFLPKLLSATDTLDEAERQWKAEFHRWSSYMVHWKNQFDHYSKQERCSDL
The experiment is described as follows: Inhibition of AChE in Swiss Webster mouse cerebral homogenate using acetylthiocholine iodide as substrate preincubated for 10 mins followed substrate addition measured after 10 mins by Ellman's method.

For a further experiment, the target named is Cholinesterase (Mus musculus, UniProt Q03311). Put plainly: Inhibition of BuChE in Swiss Webster mouse whole blood serum using butyrylthiocholine iodide as substrate preincubated for 10 mins followed substrate addition measured after 10 mins by Ellman's method.

Molecules are shown by their SMILES.

Cholinesterase, sequence (Q03311 whole entry): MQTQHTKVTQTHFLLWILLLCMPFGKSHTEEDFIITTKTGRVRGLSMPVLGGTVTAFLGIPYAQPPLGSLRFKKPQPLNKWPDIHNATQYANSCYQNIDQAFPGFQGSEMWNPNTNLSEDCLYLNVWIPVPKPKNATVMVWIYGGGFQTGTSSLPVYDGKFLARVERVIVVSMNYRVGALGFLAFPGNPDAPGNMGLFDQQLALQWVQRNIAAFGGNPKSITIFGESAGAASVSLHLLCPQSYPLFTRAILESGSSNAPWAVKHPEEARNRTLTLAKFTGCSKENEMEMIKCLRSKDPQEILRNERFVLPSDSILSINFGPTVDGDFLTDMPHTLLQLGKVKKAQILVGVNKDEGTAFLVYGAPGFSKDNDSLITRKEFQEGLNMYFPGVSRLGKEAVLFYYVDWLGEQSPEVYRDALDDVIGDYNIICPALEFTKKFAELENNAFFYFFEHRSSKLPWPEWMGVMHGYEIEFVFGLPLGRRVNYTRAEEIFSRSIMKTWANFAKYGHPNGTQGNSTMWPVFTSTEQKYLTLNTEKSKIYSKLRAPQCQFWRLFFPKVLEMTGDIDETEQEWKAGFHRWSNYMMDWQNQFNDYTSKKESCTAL

As for `c1ccc2c(NCCCCCCCNc3c4c(nc5ccccc35)CCCC4)c3c(nc2c1)CCCC3`, the concentration for half-maximal inhibition (IC50) against Acetylcholinesterase turned out to be 1.9 nM; on Cholinesterase, 9.1 nM.

Regarding `CO[C@@H]1O[C@H](CNCCCCCCCCCNc2c3c(nc4ccccc24)CCCC3)[C@H]2OC(C)(C)O[C@@H]12`, the results for the IC50 at Acetylcholinesterase and on Cholinesterase were 65.5 nM and 64.3 nM, respectively.

With `CC1(C)O[C@H]2O[C@H](CNCCCCCCCNc3c4c(nc5ccccc35)CCCC4)[C@H](O)[C@H]2O1`, the results for the IC50 against Acetylcholinesterase and at Cholinesterase were 84.4 nM and 11.7 nM, respectively.

Regarding `CC1(C)O[C@H]2O[C@H](CNCCCCCCCCCCNc3c4c(nc5ccccc35)CCCC4)[C@H](O)[C@H]2O1`, the 50% inhibitory concentration (IC50) turned out to be 2.2 nM at Acetylcholinesterase and 4.93 nM at Cholinesterase.

On to `CC1(C)O[C@H]2[C@@H](O1)[C@@H](CNCCCCCCCCCNc1c3c(nc4ccccc14)CCCC3)O[C@@H]1OC(C)(C)O[C@@H]12`, for which the concentration for half-maximal inhibition (IC50) at Acetylcholinesterase worked out at 7.6 nM; against Cholinesterase, 26.2 nM.

With `CC1(C)O[C@H]2O[C@H](CNCCCCCCCCNc3c4c(nc5ccccc35)CCCC4)[C@H](O)[C@H]2O1`, the values for the IC50 against Acetylcholinesterase and on Cholinesterase were 5.1 nM and 25.8 nM, respectively.

For the molecule `CC1(C)O[C@H]2O[C@H](CNCCCCCCNc3c4c(nc5ccccc35)CCCC4)[C@H](O)[C@H]2O1`, the IC50 against Acetylcholinesterase stood at 8.7 nM; at Cholinesterase, 27.6 nM.

Take `CC1(C)O[C@H]2[C@@H](O1)[C@@H](CNCCCCCCCCNc1c3c(nc4ccccc14)CCCC3)O[C@@H]1OC(C)(C)O[C@@H]12`: the half-maximal inhibitory concentration (IC50) amounted to 4.8 nM against Acetylcholinesterase and 36.7 nM on Cholinesterase.

`CO[C@@H]1O[C@H](CNCCCCCCCCNc2c3c(nc4ccccc24)CCCC3)[C@H]2OC(C)(C)O[C@@H]12`: the IC50 on Acetylcholinesterase was 89.9 nM; on Cholinesterase, 36.9 nM.

On to `CC1(C)O[C@H]2O[C@H](CNCCCCCCCCCNc3c4c(nc5ccccc35)CCCC4)[C@H](O)[C@H]2O1`, for which the IC50 was determined as 10.2 nM against Acetylcholinesterase and 30.8 nM against Cholinesterase.

The record behind these values is ChEMBL document CHEMBL4265994, “Design, synthesis, cholinesterase inhibition and molecular modelling study of novel tacrine hybrids with carbohydrate derivatives” (Bioorg Med Chem, 2018).
